Data taken from patent EP1114060B1, “PROCESS FOR PRODUCING PEPTIDES FROM BIOLOGICAL FLUIDS AND PEPTIDES […] SAID PROCESS” (NIZO food research, priority 1998, dated 2003).
Bridges are numbered along the chain shown (N, C = ends). Where no end group is shown, it is not given here. [ ]: non-standard residue; d: D form. Dhb = C/C=C(\N)C(=O)O; Dha = C=C(N)C(=O)O

Tested on: Micrococcus flavus DSM 1790
Test: plate diffusion assay for antibacterial activity
Type: cell-based
Details: fraction desorbed with 1 M KCI in phosphate buffer, pH 7.0
Method: Antibacterial activities of the peptide mixtures and/or isolated peptides were determined by a plate diffusion assay using Micrococcus flavus DSM 1790 as indicator organism. M. flavus was grown in MF broth (0.1% sucrose, 1% peptone, 0.3% meat extract, 0.2% NaCI, 0.15% yeast extract pH 7.0). Peptide mixtures were tested at concentrations from 0.2 mg/ml to 50 mg/ml in bidistilled water.

## nisin A (I[Dhb]SI[Dha]LCTPGCKTGALMGCNMKTATCHCSIHV[Dha]K; bridge 23-26, 13-19, 8-11, 25-28, 3-7; not fully specified (bridges); UniProt P13068 24-57, looked up) [lantibiotic]
  activity against Micrococcus flavus: showed activity
